Reference: paper PMC9769880, “Diverse Sensory Repertoire of Paralogous Chemoreceptors Tlp2, Tlp3, and Tlp4 in Campylobacter jejuni” (Microbiology Spectrum, 2022)
Like-named read-outs stand apart in the source and are kept apart here.

Tests used:
Tlp3 [1] = molecular target: T1, Tlp3 (Campylobacter jejuni, UniProt Q0P864); assay: STD NMR spectroscopy of arginine in complex with Tlp3; format: binding; conditions: 283K, 600.13 MHz; H3/H3′ and H5/H5′
Procedure: STD NMR experiments were performed as previously described in ([10]). […] A control sample was prepared in an identical manner without the addition of Tlp3. All NMR experiments were performed using 3-mm NMR tubes on a Bruker Avance 600 MHz spectrometer equipped with a 5-mm TXI probe with triple-axis gradients at 283K without sample spinning. ^1H NMR spectra were acquired with 32 scans and a 2-s relaxation delay over a spectral width of 6,000 Hz. Solvent suppression of the residual HDO peak was achieved by using a continuous low-power presaturation pulse during the relaxation delay. For all STD NMR experiments, the protein was saturated at −0.5 ppm in the aliphatic region of the spectrum and off-resonance at 33 ppm with a cascade of 40 selective Gaussian-shaped pulses of 50-ms duration (50 dB), which correlates to a strength of 190 Hz. A 100-μs delay between each soft pulse was applied, resulting in a total saturation time of ~2 s 2 K scans were acquired per sample. Data were obtained with interspersed acquisition of pseudo-two-dimensional on-resonance and off-resonance spectra in order to minimize the effects of temperature and magnet instability. On- and off-resonance spectra were processed separately, and the final STD NMR spectrum was obtained by subtracting the individual on- and off-resonance spectra, resulting in low-subtraction artifacts.

Tlp3 [2] = format: cell-based, C. jejuni 11168-O
Procedure: (§1) The biological relevance of the binding specificities of the Tlp2,3,4 cluster was assessed by examining chemotactic responses of C. jejuni 11168-O tlp2, tlp3, and tlp4 wild-type (WT) and mutant strains using a nutrient-depleted chemotaxis assay. All ligands, with the exception of lysine and cysteine, interacted with Tlp2 and Tlp4 as attractants (Table 1), showing an ~1- to ~2-log decrease (P < 0.05) in migration toward the ligand compared to the WT strain.
(§2) Chemotaxis assays—the nutrient-depleted chemotaxis assay and the modified hard agar plug assay (tHAP)—were performed as previously described ([11], [34]). The chemotactic responses of all isogenic strains were compared to that of the C. jejuni 11168-O wild-type strain to distinguish between chemoattractants and chemorepellents. For the nutrient-depleted chemotaxis and modified hard agar plug (tHAP) assays, all differences were calculated as changes on a log10 scale. Controls were provided by using nonmotile (C. jejuni 81116 flaAB) and nonchemotactic (C. jejuni NCTC 11168 cheY) mutants ([69]) and mucin as negative and positive controls ([10]).

Tlp2 [3] = molecular target: T2, Tlp2 (Campylobacter jejuni, UniProt Q0PBZ3); assay: biochemical; format: binding; conditions: read-out: Tlp2 Affinity
Procedure: (§3) His-tagged proteins (Tlp2, -3, and -4) were prepared as previously described ([11]) DNA segments encoding the periplasmic sensory domains (33 to 286 amino acids) of Tlp2 and (38 to 297 amino acids) of Tlp4 were amplified (see Table S7), ligated into pGEM-T Easy (Promega) and subcloned into pET-19b (Novagen) (see Table S6). Recombinant proteins were expressed in E. coli BL21(DE3) using 1 mM IPTG (isopropyl-β-D-thiogalactopyranoside) and purified using His-select-nickel chromatography as described previously ([8], [11]). The purity of the proteins was confirmed by SDS-PAGE and Western blot analysis with anti-His antibodies (Bio-Rad). Protein concentrations were determined using a NanoDrop spectrophotometer (Thermo Fisher).
(§4) Surface plasmon resonance (SPR) experiments were performed as described previously ([10], [11]) with the following modifications. Briefly, purified proteins were diluted to 0.15 μM in sodium acetate (pH 4.0) and immobilized onto an active flow cell of a CM5 sensor chip with a flow rate of 5 μL/min for 7 min of contact time using a standard amine coupling protocol. Immobilized protein levels for all three proteins ranged from 6028.3 to 9779.3 response units (RU) providing a minimum expected response maximum (RMax) between 20 and 50 RU for the small molecules tested. […] All ligands were prepared in PBS (pH 7.2) and serially diluted from 0.2 to 0.0125 mM. A 10-min dissociation period was allocated after the introduction of each analyte. SPR experiments were performed in single-cycle kinetics mode using the BIAcore S200 biosensor system (Cytiva) at 25°C in PBS (pH 7.2) at a flow rate of 30 μL/min. The equilibrium dissociation constant (KD) for each analyte was determined using BIAcore S200 Evaluation software with a report point 4 s after the injection stop to account for the bulk transfer of the small molecule against a large amount of immobilized protein (as shown in Fig. S5).

Tlp4 [4] = molecular target: T3, Tlp4 (Campylobacter jejuni, UniProt Q0PBP3); assay: biochemical; format: binding; conditions: read-out: Tlp4 Affinity
Procedure: as §3, §4

Tlp3^LBD D169A [5] = molecular target: T4, Tlp3^LBD D169A (Campylobacter jejuni, UniProt Q0P864, D169A); conditions: compared to WT Tlp3^LBD, P < 0.05
Tlp2 [6] = format: cell-based, C. jejuni 11168-O; conditions: nutrient-depleted chemotaxis assay
Procedure: as §1, §2

Tlp4 [7] = format: cell-based, C. jejuni 11168-O; conditions: nutrient-depleted chemotaxis assay
Procedure: as §1, §2

Tlp2 [8] = molecular target: T2, Tlp2; format: binding; conditions: yes/no binding
Procedure: (§5) Glycan (>400 monosaccharides or complex glycans) and small molecule arrays containing amino acids and salts were performed as described previously by Day et al. ([67]). Briefly, 1 μg of purified recombinant protein was complexed with anti-His antibody (Cell Signaling Technology) and rabbit anti-mouse/goat anti-rabbit Alexa 555-IgG (Thermo Scientific) at a molar ratio of 1:0.5:0.25 and then incubated on the array for […] in phosphate-buffered saline (PBS). The array slides were scanned at 488/520 nm and analyzed using InnoScan 1100 with MAPIX software. All arrays were performed in triplicate with a total of 12 data points for each glycan tested; the complete data set and MIRAGE (i.e., minimum information regarding a glycomics experiment) results are shown in Tables S3 and S8.
(§6) Table S8 - Supplementary glycan microarray document based on M IRAGE guidelines. D O I:
(§7) Classification Guidelines
(§8) 1. Sample: Glycan Binding Sample
(§9) Origin: Helicobacter pylori SS1; produced as a recombinant His - tagged protein in E.
(§10) The preparation of Tlp2,3, and 4 is explained in the Materials and Methods section:
(§11) Expression and purification of the periplasmic domain of Tlp2,3, and 4.
(§12) Sample Sample is a His Tagged protein containing only the periplasmic receptor domain of the modifications full length Tlp2,3, and 4transmembrane protein.
(§13) Please see Materials and Methods: Tlps 2/3/4 bind to a range of ligands, including […]
(§14) Proteins were complexed with mouse anti- his antibody, with secondary and tertiary AlexaFluor555 antibodies (rabbit anti-mouse, goat anti-rabbit) at a molar ratio of 4:2:1.
(§15) The protein/antibody complex was incubated on ice for 10 mins prior to placing on the Assay protocol array. Arrays were performed with 1 µg of complexed protein incubated on the array for 20 min. Arrays were then washed 3 times in Array PBS (PBS + 2mM MgCl2 + 2mM CaCl2) then dried by centrifugation for 3 min at 300 x g . Scanning was performed us ing an Innopsys InnoScan 1100AL and analyzed using Mapix (Innopsys). Yes/no binding was determined by six positive replicate spots in three replicate experiments. Positive […]
(§16) Glycan Glycans in this study are listed in Table S2 and is a published library in doi:
(§17) Glycans were prepared in one of two ways for printing:
(§18) Glycan 1. Glycans (with IDs in number/letter format; e.g. 1A, 4C, 7K) were sourced modifications commercially from Dextra Laboratories, Elicityl and Carbosythn and were made into glycoamines using the protocol published in Day et al 2009 (doi:
(§19) Glycan arrays: We only use glycan arrays as a yes/no binding tool. Due to this we look only at binding that is unambiguously above background vs lack of binding above background. Average background + 3x standard deviation of the background of 20 sets of 4 spots of DMF:DMSO only spots is applied to determine if binding observed is […]
(§20) Only spots with values equal to or greater than this value were considered as binding from data of any tested slide. These values are slide […]
(§21) Data Small molecule arrays: We only use amino acid arrays as a yes/no binding tool. Due interpretation to this we look only at binding that is unambiguously above background vs lack of binding above background. Average background + 3x standard deviation of the background of 6 spots of PBS + 2% glycerol only spots is applied to determine if […]
(§22) Only spots with values equal to or greater than this value were considered as binding from data of any tested slide. These values are slide dependent. […]

Tlp4 [9] = molecular target: T3, Tlp4; format: binding; conditions: yes/no binding
Procedure: as §5, §6, §7, §8, §9, §10, §11, §12, §13, §14, §15, §16, §17, §18, §19, §20, §21, §22

Tlp3 [10] = molecular target: T1, Tlp3; assay: Glycan/small molecule arrays with Tlp3; conditions: yes/no binding
Procedure: as §5, §6, §7, §8, §9, §10, §11, §12, §13, §14, §15, §16, §17, §18, §19, §20, §21, §22

Tlp3^LBD K149A [11] = molecular target: T5, Tlp3^LBD K149A (Campylobacter jejuni, UniProt Q0P864, K149A); conditions: compared to WT Tlp3^LBD, P < 0.05
Tlp3^LBD W151A [12] = molecular target: T6, Tlp3^LBD W151A (Campylobacter jejuni, UniProt Q0P864, W151A); assay: biochemical
Tlp3^LBD D196A = Tlp3^LBD D196A (Campylobacter jejuni, UniProt Q0P864, D196A); assay: biochemical
Tlp3^LBD K149A [13] = molecular target: T5, Tlp3^LBD K149A; assay: biochemical
Tlp3 [14] = molecular target: T1, Tlp3; assay: biochemical; format: binding
Procedure: as §3, with “The purity of the proteins was confirmed by SDS-PAGE and Western blot analysis with anti-His antibodies (Bio-Rad).” left out
Surface plasmon resonance (SPR) experiments were performed as described previously ([10], [11]) with the following modifications. […] All ligands were prepared in PBS (pH 7.2) and serially diluted from 0.2 to 0.0125 mM. A 10-min dissociation period was allocated after the introduction of each analyte. SPR experiments were performed in single-cycle kinetics mode using the BIAcore S200 biosensor system (Cytiva) at 25°C in PBS (pH 7.2) at a flow rate of 30 μL/min. The equilibrium dissociation constant (KD) for each analyte was determined using BIAcore S200 Evaluation software with a report point 4 s after the injection stop to account for the bulk transfer of the small molecule against a large amount of immobilized protein (as shown in Fig. S5).

Tlp3^LBD D170A = Tlp3^LBD D170A (Campylobacter jejuni, UniProt Q0P864); assay: biochemical
Tlp3^LBD W151A [15] = molecular target: T6, Tlp3^LBD W151A; conditions: compared to WT Tlp3^LBD, P < 0.05
Tlp3^LBD D169A [16] = molecular target: T4, Tlp3^LBD D169A; assay: biochemical
[17] = system: C. jejuni 11168-O tlp2, tlp3, and tlp4 mutant strains; format: cell-based; conditions: positive control
[18] = SPR KD, mean ± SD, NB = no binding

T1 sequence (Q0P864 entry or part of it): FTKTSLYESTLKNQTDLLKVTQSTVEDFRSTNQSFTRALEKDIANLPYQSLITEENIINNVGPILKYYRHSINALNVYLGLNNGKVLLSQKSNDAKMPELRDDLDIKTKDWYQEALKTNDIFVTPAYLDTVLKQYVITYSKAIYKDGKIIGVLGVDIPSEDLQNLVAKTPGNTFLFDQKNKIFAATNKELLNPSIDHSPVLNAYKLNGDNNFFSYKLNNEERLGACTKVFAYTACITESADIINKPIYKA
T2 sequence (Q0PBZ3 entry or part of it): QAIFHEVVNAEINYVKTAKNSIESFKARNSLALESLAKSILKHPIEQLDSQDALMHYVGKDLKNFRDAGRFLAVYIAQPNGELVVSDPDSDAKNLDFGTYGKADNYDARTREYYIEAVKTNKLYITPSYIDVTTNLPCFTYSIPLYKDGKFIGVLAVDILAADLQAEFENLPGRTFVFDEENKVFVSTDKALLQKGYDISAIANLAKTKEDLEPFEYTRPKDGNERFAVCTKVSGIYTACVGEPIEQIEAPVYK
T3 sequence (Q0PBP3 entry or part of it): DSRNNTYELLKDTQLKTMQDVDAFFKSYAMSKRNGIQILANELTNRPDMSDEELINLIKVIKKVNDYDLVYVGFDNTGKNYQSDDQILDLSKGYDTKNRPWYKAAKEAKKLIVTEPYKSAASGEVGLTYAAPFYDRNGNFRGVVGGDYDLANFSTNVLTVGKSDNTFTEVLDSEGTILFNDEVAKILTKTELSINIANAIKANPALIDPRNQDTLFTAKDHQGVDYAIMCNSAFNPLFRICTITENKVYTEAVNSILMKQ
T5 sequence (Q0P864 41-290 K149A): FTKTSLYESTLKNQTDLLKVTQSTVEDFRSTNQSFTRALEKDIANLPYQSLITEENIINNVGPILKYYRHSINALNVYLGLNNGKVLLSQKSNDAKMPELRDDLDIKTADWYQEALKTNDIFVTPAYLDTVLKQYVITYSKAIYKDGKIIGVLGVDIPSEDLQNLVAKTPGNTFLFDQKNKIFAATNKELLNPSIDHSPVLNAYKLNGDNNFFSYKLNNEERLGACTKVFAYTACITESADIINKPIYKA
T6 sequence (Q0P864 41-290 W151A): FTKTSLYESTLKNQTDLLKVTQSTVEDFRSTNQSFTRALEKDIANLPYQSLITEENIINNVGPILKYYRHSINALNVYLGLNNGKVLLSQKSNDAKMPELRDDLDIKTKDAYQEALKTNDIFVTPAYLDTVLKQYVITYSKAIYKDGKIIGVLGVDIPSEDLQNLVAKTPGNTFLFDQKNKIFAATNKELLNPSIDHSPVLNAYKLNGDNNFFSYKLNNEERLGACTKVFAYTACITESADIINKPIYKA
T4 sequence (Q0P864 41-290 D169A): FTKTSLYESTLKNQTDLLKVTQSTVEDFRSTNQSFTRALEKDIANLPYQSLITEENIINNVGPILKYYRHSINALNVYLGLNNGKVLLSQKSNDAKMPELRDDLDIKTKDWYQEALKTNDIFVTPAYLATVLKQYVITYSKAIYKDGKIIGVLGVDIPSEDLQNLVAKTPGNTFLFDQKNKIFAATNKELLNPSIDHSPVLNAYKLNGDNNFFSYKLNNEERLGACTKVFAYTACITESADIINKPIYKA
Chain of Tlp3^LBD D196A (Q0P864 41-290 D196A): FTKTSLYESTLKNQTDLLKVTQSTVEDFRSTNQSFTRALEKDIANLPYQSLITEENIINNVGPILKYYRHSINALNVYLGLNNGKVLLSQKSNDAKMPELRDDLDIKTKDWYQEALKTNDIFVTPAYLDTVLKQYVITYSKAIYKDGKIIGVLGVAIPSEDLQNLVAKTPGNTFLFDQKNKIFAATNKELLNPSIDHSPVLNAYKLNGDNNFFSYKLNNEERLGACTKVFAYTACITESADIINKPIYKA
Chain of Tlp3^LBD D170A (Q0P864 41-290 T170A): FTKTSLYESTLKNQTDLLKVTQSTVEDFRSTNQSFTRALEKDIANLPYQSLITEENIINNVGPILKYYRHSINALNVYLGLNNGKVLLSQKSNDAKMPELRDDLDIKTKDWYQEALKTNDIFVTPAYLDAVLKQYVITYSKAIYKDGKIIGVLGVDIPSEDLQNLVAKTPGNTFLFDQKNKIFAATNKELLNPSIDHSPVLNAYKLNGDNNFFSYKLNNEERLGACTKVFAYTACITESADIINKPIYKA

For `N=C(N)NCCC[C@H](N)C(=O)O` [Arginine], the “saturation transfer (STD NMR)” value (Tlp3 [1]) was “Strong saturation transfer”, the “Tlp3 CR (chemoresponse)” value (Tlp3 [2]) was “R” and the Kd (Tlp2 [3]) was over 200 µM. It also gave a Kd (Tlp4 [4]) of over 200 µM.
For `OC[C@H]1OC(O)[C@@H](O)[C@@H](O)[C@@H]1O` (some centres unmarked) [Mannose], the “reduction in the affinity of Tlp3^LBD, substitution D169A” value (Tlp3^LBD D169A [5]) was 2 fold, the “Tlp3 CR (chemoresponse)” value (Tlp3 [2]; chemotaxis of mutant compared to WT strain) was “R” and the “chemotactic response via Tlp3” value (Tlp3 [2]; nutrient-depleted chemotaxis assay) was “repellents”. The “chemotactic response via Tlp2” value (Tlp2 [6]) was “attractants”, the “chemotactic response via Tlp4” value (Tlp4 [7]) was “attractants” and the “binding to Tlp2 on glycan/small molecule array” value (Tlp2 [8]) was “interacted”. For the same compound, the “binding to Tlp4 on glycan/small molecule array” value (Tlp4 [9]) was “interacted”, the Kd (Tlp2 [3]; [18]) was 12.9 ± 1.8 µM and the Kd (Tlp4 [4]; [18]) was 7.8 ± 1 µM. The “binding to Tlp3 on glycan/small molecule array” value (Tlp3 [10]) was “interacted” and the “reduction in the affinity of Tlp3^LBD, substitution K149A” value (Tlp3^LBD K149A [11]) was 2 fold.
In the case of `Cc1ncc(C[n+]2csc(CCO)c2C)c(N)n1` [Thiamine], the Kd (Tlp3^LBD W151A [12]) is reported as 73.3 ± 4.4 µM, the Kd (Tlp3^LBD D196A) is reported as 36.8 ± 10 µM and the “Tlp3 CR (chemoresponse)” value (Tlp3 [2]) is reported as “R”. The Kd (Tlp3^LBD K149A [13]) was 53.8 ± 6.6 µM, the Kd (Tlp3 [14]) was 41.4 ± 5.9 µM and the Kd (Tlp2 [3]) was over 200 µM. The Kd (Tlp4 [4]) was over 200 µM, the Kd (Tlp3^LBD D170A) was 30.6 ± 7.2 µM and the “reduction in the affinity/binding of Tlp3^LBD, substitution W151A” value (Tlp3^LBD W151A [15]) was 1 fold. The Kd (Tlp3^LBD D169A [16]) was 62 ± 8.5 µM.
mucin was tested, and the “migration toward control ligand in mutants” value [17] was “not affected”.
